Measurements published in PMC8623398, “Investigation of the Mechanisms of Cytotoxic Activity of 1,3-Disubstituted Thiourea Derivatives” (Pharmaceuticals, 2021).

Assays:
Type in all cases: cell-based, human
[1] = system: SW480 cells; assay: MTT assay, SW480; conditions: 50% growth inhibition
Experimental: (§1) As a first step in assessing their cytotoxic properties, all thioureas of the series were assayed against four human carcinoma cell lines, such as SW480 (primary colon cancer), SW620 (metastatic colon cancer), PC3 (metastatic prostate cancer), and K-562 (chronic myelogenous leukemia), as well as against the normal cell line HaCaT (immortalized human keratinocytes). Table 1 lists the compound concentrations that produced 50% of growth inhibition (IC50, μM), generated by the MTT method, in comparison with two commonly used chemotherapeutic agents, doxorubicin and cisplatin.
(§2) The human primary (SW480), metastatic (SW620) colon cancer, metastatic prostate cancer (PC3), chronic myelogenous leukemia (K-562), and human immortal keratinocyte (HaCaT) cell lines were purchased from the American Type Culture Collection (ATCC, Rockville, MD, USA). The cells were cultured in medium according to protocols (MEM for SW480 and SW620, RPMI 1640 for PC3 and K-562, and DMEM for HaCaT cells), supplemented with 10% FBS, penicillin (100 U/mL) and streptomycin (100 μg/mL), and cultured in a 37 °C/5% CO2 humidified incubator. The cells were cultured until appropriate confluence was achieved (80–90%). Next, they were harvested by treatment with 0.25% trypsin (Gibco Life Technologies, Waltham, MA, USA) excluding the non-adherent K-562 cell line and used for studies.
(§3) Cells without the studied compounds in medium were used as a control.
(§4) The cell viability was assessed by determination of MTT salt [3-(4,5-dimethylthiazol-2-yl)-2,5-diphenyltetrazoliumbromide] conversion by mitochondrial dehydrogenase. The MTT assay was performed as previously described. Alternatively, non-adherent leukemic cells were centrifuged in a microplate centrifuge (400× g, 5 min) during the collection stages. Experiments were repeated three times. Cell viability was presented as a percent of MTT reduction in the treated cells versus the control cells. The number of viable cells cultured without the studied compounds was assumed as 100%. A decreased relative MTT level indicated decreased cell viability. Thiourea compounds with the highest cytotoxic potential assessed by MTT determination (with the lowest IC50) were chosen for subsequent assessments of cytotoxicity mechanisms.

[2] = system: K-562 cells; assay: MTT assay, K562; conditions: 50% growth inhibition
Experimental: as §1, §2, §3, §4

[3] = system: SW620 cells; assay: Trypan blue assay, SW620; conditions: SW620, 72 h; for Cell Number × 10^5 / Viability (%): compound at IC50 concentration; for reduction in live cell number: vs control
Experimental: (§5) In order to estimate the tumor and normal cell population density and their viability after treatment with compounds 1–3, 8, and 9, the trypan blue dye exclusion assay was performed. The live cell number of all cancerous cells incubated for 72 h with the studied thioureas was considerably lower in comparison with the controls (Table 2; Figure S1A). The highest reduction in cell amount was denoted for both colon SW480 and SW620 cells treated with the dichlorophenyl derivative 2, and it accounted for 93%. […] Similarly, a noticeable decline in both colon cancer cell populations was observed after treatment with the ortho-substituted compound 8. The number of live cells equaled 12% and 18%, respectively, as compared to controls. This thiourea also led to a reduction of PC3 cells of 38%, and leukemia K-562 cell lines of 27%. The number of SW620 and PC3 cells decreased by 72% and 63% in the presence of para-substituted compound 9. However, the reducing influence of this thiourea on the number of other cancerous cells was at the level of 21–32%. […] A significant effect on the other studied pathological cells was also noticed and accounted for 32–46%. Furthermore, the derivative 3 reduced the amount of live cancer cells by 32–59%, of which its decreasing impact on colon cancer cells was the greatest.
(§6) The live cell count was assessed by the trypan blue exclusion dye assay using an automated cell counter (CountessTM Invitrogen, Waltham, MA, USA). Untreated cells were used as the control.

[4] = system: PC3 cells; assay: Trypan blue assay, PC3; conditions: PC3, 72 h; for reduction in live cell number: IC50 concentration, vs control; for Cell Number × 10^5 / Viability (%): compound at IC50 concentration
Experimental: as §5, §6

[5] = Trypan blue assay, HaCaT; conditions: human, HaCaT cells, compound at IC50 concentration
Experimental: as §5, §6

[6] = system: HaCaT cells; assay: Trypan blue assay, HaCaT; conditions: 72 h, compound at IC50 concentration
Experimental: as §5, §6

[7] = system: IL-6 level, SW480 cells; assay: IL-6 level ELISA, SW480; conditions: SW480, 72 h; for IL-6 Concentration: compound at IC50 concentration, ELISA; for reduction (inhibition) of IL-6 level: IC50 concentration, vs control
Experimental: (§7) Because of the low secretion of IL-6 by leukemic cells compared to solid tumors, and in addition to the lack of IL-6 receptors in K-562 cells, studies of the effect of derivatives 1–3, 8, and 9 on the inhibition of IL-6 release were carried out on primary and secondary solid tumor cells (SW480, SW620, and PC3). A remarkable inhibition of the IL-6 level was denoted for both colon cancer cell lines. Compound 2, identified as the strongest inhibitor, reduced the interleukin level by 54% (in SW480 cells) and 63% (SW620 cells). A significant effect was also observed in these cells for its structural isomer 3 (39% and 23% of inhibition, respectively). Additionally, compound 3 considerably affected the IL-6 level produced by PC3 cells, and reduced it by 33%. Similarly, the treatment with derivative 1 was effective for both colon cancer cells. In its presence, IL-6 release decreased by 28–36%, as compared to controls. For monosubstituted derivatives 8 and 9, the observed IL-6-reducing influence was weaker. They both inhibited IL-6 secretion in SW480 and SW620 cell lines by 25–32%. In contrast to compound 9, thiourea 8 additionally diminished the cytokine level in PC3 cells by 26%.
(§8) The IL-6 concentration in all studied cancer cells and normal HaCaT cell lines was measured by an ELISA kit (Diaclon SAS Besancon CEDEX, Besançon, France). […] IL-6 in cell culture supernatant was measured using the enzyme-linked immunosorbent assay in accordance with the manufacturer’s protocol.

[8] = system: IL-6 level, SW620 cells; assay: IL-6 level ELISA, SW620; conditions: SW620, 72 h; for IL-6 Concentration: compound at IC50 concentration, ELISA; for reduction (inhibition) of IL-6 level: IC50 concentration, vs control
Experimental: as §7, §8

[9] = system: IL-6 level, PC3 cells; assay: IL-6 level ELISA, PC3; conditions: PC3, 72 h; for reduction of IL-6 level: IC50 concentration, vs control; for IL-6 Concentration: compound at IC50 concentration, ELISA
Experimental: as §7, §8

[10] = system: IL-6 level, HaCaT cells; assay: IL-6 level ELISA, HaCaT; conditions: 72 h, compound at IC50 concentration
Experimental: as §7, §8

Structure (SMILES)	IC50 ([1]; Homo sapiens, SW480, 72 h)	IC50 ([2]; Homo sapiens, K562, 72 h)	Cell Number × 10^5 [3]	Viability (%) [3]	reduction in live cell number [4]	Cell Number × 10^5 [4]	Viability (%) [4]	viability at 72 h [5]	Cell Number × 10^5 [6]	IL-6 Concentration [7]	IL-6 Concentration [8]	reduction of IL-6 level [9]	IL-6 Concentration [9]	IL-6 Concentration [10]	reduction in live cell number ([3]; IC50 concentration)	reduction (inhibition) of IL-6 level [7]	reduction (inhibition) of IL-6 level [8]	further results
FC(F)(F)c1ccc(NC(=S)Nc2cccc(C(F)(F)F)c2)cc1 [Compound 8, 1-[3-(trifluoromethyl)phenyl]-3-[4-(trifluoromethyl)phenyl]thiourea]	8.9 ± 1.14 µM	54.8 ± 0.24 µM	1.0 ± 0.20 × 10^5	55 ± 1.11%	38%	2.1 ± 0.12 × 10^5	82 ± 1.10%	98 ± 1.02%	4.9 ± 0.28 × 10^5	5.3 ± 0.01 pg/mL	5.8 ± 0.06 pg/mL	26%	8.1 ± 0.08 pg/mL	9.1 ± 0.06 pg/mL	–	–	–	decrease of cell viability ([3]; IC50 concentration): 45%; number of live cells as compared to controls ([3]; IC50 concentration): 18%
FC(F)(F)c1cccc(NC(=S)Nc2ccc(Cl)cc2)c1 [Compound 9, 1-(4-chlorophenyl)-3-[3-(trifluoromethyl)phenyl]thiourea]	38.1 ± 4.38 µM	10.2 to 12.9 µM	1.6 ± 0.11 × 10^5	84 ± 3.08%	63%	1.2 ± 0.15 × 10^5	73 ± 1.99%	98 ± 1.5%	8.6 ± 0.12 × 10^5	5.5 ± 0.02 pg/mL	5.2 ± 0.03 pg/mL	–	9.9 ± 0.03 pg/mL	9.0 ± 0.01 pg/mL	72%	–	–	IC50 ([2]; 72 h): 10.2 ± 0.35 µM
FC(F)(F)c1cccc(NC(=S)Nc2ccc(Cl)c(Cl)c2)c1 [Compound 2, 1-(3,4-dichlorophenyl)-3-[3-(trifluoromethyl)phenyl]thiourea]	9 ± 1.42 µM	6.3 ± 1.28 µM	0.4 ± 0.22 × 10^5	42 ± 1.30%	69%	2.4 ± 0.16 × 10^5	93 ± 1.40%	84 ± 1.03%	1.6 ± 0.31 × 10^5	3.6 ± 0.02 pg/mL	2.8 ± 0.03 pg/mL	–	9.1 ± 0.04 pg/mL	9.1 ± 0.03 pg/mL	93%	54%	63%	–
Fc1ccc(NC(=S)Nc2cccc(C(F)(F)F)c2)cc1Cl [Compound 1, 1-(3-chloro-4-fluorophenyl)-3-[3-(trifluoromethyl)phenyl]thiourea]	12.7 to 15.6 µM	6.8 ± 1.57 µM	1.3 ± 0.25 × 10^5	79 ± 1.30%	–	2.3 ± 0.15 × 10^5	93 ± 1.50%	97 ± 1.33%	6.5 ± 0.15 × 10^5	5.7 ± 0.01 pg/mL	4.9 ± 0.01 pg/mL	–	9.6 ± 0.02 pg/mL	8.7 ± 0.03 pg/mL	–	–	–	IC50 ([1]; 72 h): 12.7 ± 1.53 µM
FC(F)(F)c1cccc(NC(S)=Nc2ccc(Cl)cc2Cl)c1 [Compound 3, 1-(2,4-dichlorophenyl)-3-[3-(trifluoromethyl)phenyl]thiourea]	30.1 ± 3.11 µM	54.3 ± 1.86 µM	2.4 ± 0.20 × 10^5	93 ± 2.33%	–	1.8 ± 0.18 × 10^5	58 ± 1.20%	96 ± 3.01%	7.8 ± 0.14 × 10^5	4.8 ± 0.04 pg/mL	5.9 ± 0.03 pg/mL	33%	7.3 ± 0.06 pg/mL	8.9 ± 0.01 pg/mL	–	39%	23%	–
